Reference: US20080045514A1 (Cytovia, Inc., priority 2006, published 2008)

Tests used:
Assay type in all cases: cell-based
[1] = test system: human colon carcinoma cell line HCT116; experiment: Inhibition of cell proliferation (GI50), HCT116; conditions: Homo sapiens; HCT 116 cells, 48 h, CellTiter-Glo
Procedure, shortened: (§1)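 Growth inhibition is determined as the compound concentration halving proliferation relative to a time-zero (0.5 h) luminescence baseline and drug-free maximum. Cells (4.4×10^4 cells/mL) are treated 48 h at 37 °C over a 1 nM–10 μM final range, and ATP content is measured with CellTiter-Glo.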

[2] = test system: human hepatocellular carcinoma cell line SNU398; experiment: Caspase cascade activation (EC50), SNU398; conditions: Homo sapiens, SNU-398; SNU398 cells; caspase cascade activation; read-out: caspase potency (EC50) SNU398
Procedure, shortened: (§2)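 Test compound (0.016–10 μM final) is incubated with cells for 48 h at 37 °C. Caspase-3-like activity is measured by 3 h room-temperature cleavage of DEVD-R110 in PIPES pH 7.2 lysis buffer, with EC50 from sigmoidal fitting of background-corrected RFU relative to control.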

[3] = test system: human B cell lymphoblastoid cell line Ramos; experiment: Inhibition of cell proliferation (GI50), Ramos; conditions: Homo sapiens; Ramos cells, 48 h, CellTiter-Glo
Procedure, shortened: as §1

[4] = test system: human lymphoma cell line Raji; experiment: Caspase cascade activation (EC50), Raji; conditions: Homo sapiens, RAJI cells, read-out: caspase potency (EC50) RAJI
Procedure, shortened: as §2

[5] = test system: human cancer cell line H1299; experiment: Caspase cascade activation (EC50), H1299; conditions: NCI-H1299, H1299 cells, read-out: caspase potency (EC50) H1299
Procedure, shortened: as §2

[6] = test system: human colon carcinoma cell line HCT116; experiment: Caspase cascade activation (EC50), HCT116; conditions: Homo sapiens, HCT-116; HCT116 cells; caspase cascade activation; read-out: caspase potency (EC50) HCT116
Procedure, shortened: as §2

[7] = test system: human B cell lymphoblastoid cell line Ramos; experiment: Caspase cascade activation (EC50), Ramos; conditions: Homo sapiens, RAMOS cells, read-out: caspase potency (EC50) RAMOS
Procedure, shortened: as §2

[8] = test system: human Burkitt's lymphoma cell line Namalwa; experiment: Inhibition of cell proliferation (GI50), Namalwa; conditions: Homo sapiens, Burkitts lymphoma cell; Namalwa cells, 48 h, CellTiter-Glo
Procedure, shortened: as §1

[9] = test system: human lung cancer cell line H1299; experiment: Inhibition of cell proliferation (GI50), H1299; conditions: NCI-H1299, H1299 cells, 48 h, CellTiter-Glo
Procedure: Human breast cancer cell lines T-47D, human hepatocellular carcinoma cell line SNU398, human colon carcinoma cell line HCT116, human lung cancer cell line H1299, human leukemia cell line K562, human lymphoma cell line Raji, human B cell lymphoblastoid cell line Ramos, and human Burkitt's lymphoma cell line Namalwa were grown and harvested as in Example 100. An aliquot of […] of cells (4.4×10^4 cells/mL) was added to a well of a 96-well microtiter plate containing 5 μL of a 10% DMSO in RPMI-1640 media solution containing 10 nM to 100 μM of 3-(2-chlorophenyl)-6-(3,4-methylenedioxyphenyl)-7H-[1,2,4]triazolo[3,4-b][1,3,4]thiadiazine (1 nM to 10 μM final). An aliquot of 45 μL of cells was added to a well of a 96-well microtiter plate containing 5 μL of a 10% DMSO in RPMI-1640 media solution without compound as the control sample for maximal cell proliferation (LMax). The samples were mixed by agitation and then incubated at 37° C. for 48 h in a 5% CO2-95% humidity incubator. After incubation, the samples were removed from the incubator and 25 μL of CellTiter-Glo™ reagent (Promega) was added. The samples were mixed by agitation and incubated at room temperature for 10-15 min. Plates were then read using a luminescent plate reader (Model SPECTRAfluor Plus, Tecan) to give Ltest values.
The samples were mixed by agitation and then incubated at 37° C. for 0.5 h in a 5% CO2-95% humidity incubator. After incubation, the samples were removed from the incubator and 25 μL of CellTiter-Glo™ reagent (Promega) was added. The samples were mixed by agitation and incubated at […] 10-15 min at room temperature in a 5% CO2-95% humidity incubator. Fluorescence was read as above, (LStart) defining luminescence for initial cell number used as baseline in GI50 determinations.
Calculation: GI50 (dose for 50% inhibition of cell proliferation) is the concentration where [(Ltest−LStart)/(LMax−LStart)]=0.5.

[10] = test system: human breast cancer cell line T-47D; experiment: Inhibition of cell proliferation (GI50), T47D; conditions: Homo sapiens; T47D cells, 48 h, CellTiter-Glo
Procedure, shortened: as §1

[11] = test system: human leukemia cell line K562; experiment: Inhibition of cell proliferation (GI50), K562; conditions: Homo sapiens; K562 cells, 48 h, CellTiter-Glo
Procedure, shortened: as §1

[12] = test system: human breast cancer cell line T-47D; experiment: Caspase cascade activation (EC50), T-47D; conditions: Homo sapiens; T47D cells; caspase cascade activation; read-out: caspase potency (EC50) T47D
Procedure, shortened: as §2

[13] = test system: human lymphoma cell line Raji; experiment: Inhibition of cell proliferation (GI50), Raji; conditions: Homo sapiens; Raji cells, 48 h, CellTiter-Glo
Procedure, shortened: as §1

[14] = test system: human Burkitt's lymphoma cell line Namalwa; experiment: Caspase cascade activation (EC50), Namalwa; conditions: Homo sapiens, Burkitts lymphoma cell; Namalwa cells; caspase cascade activation; read-out: caspase potency (EC50) Namalwa
Procedure, shortened: as §2

[15] = test system: human hepatocellular carcinoma cell line SNU398; experiment: Inhibition of cell proliferation (GI50), SNU398; conditions: Homo sapiens; SNU 398 cells, 48 h, CellTiter-Glo
Procedure, shortened: as §1

Compound | GI50 [1] | EC50 [2] | GI50 [3] | EC50 [4] | EC50 [5] | EC50 [6] | EC50 [7] | GI50 [8] | GI50 [9] | GI50 [10] | GI50 [11] | EC50 [12] | GI50 [13] | EC50 [14] | GI50 [15]
COc1ccc(C2=Nn3c(nnc3-c3ccc(Cl)cc3)SC2)cc1 [D, 3-(4-Chlorophenyl)-6-(4-methoxyphenyl)-7H-[1,2,4]triazolo[3,4-b][1,3,4]thiadiazine] | 2120 nM | 82 nM | 21 nM | 84 nM | 142 nM | 130 nM | 63 nM | 1500 nM | 42 nM | 144 nM | 31 nM | 315 nM | 1500 nM | 58 nM | –
Cc1ccccc1-c1nnc2n1N=C(c1ccc3c(c1)OCO3)CS2 [Example M, 3-(2-Methylphenyl)-6-(3,4-methylenedioxyphenyl)-7H-[1,2,4]triazolo[3,4-b][1,3,4]thiadiazine] | 825 nM | 254 nM | 164 nM | 399 nM | 420 nM | 317 nM | 452 nM | 122 nM | 214 nM | 124 nM | 239 nM | 282 nM | 2220 nM | 144 nM | –
Clc1ccccc1-c1nnc2n1N=C(c1ccc3c(c1)OCO3)CS2 [Example P, 3-(2-chlorophenyl)-6-(3,4-methylenedioxyphenyl)-7H-[1,2,4]triazolo[3,4-b][1,3,4]thiadiazine] | 884 nM | 189 nM | 118 nM | 339 nM | 370 nM | 231 nM | 289 nM | 472 nM | 202 nM | 175 nM | 214 nM | 235 nM | 426 nM | 123 nM | –
CCOc1ccc(C2=Nn3c(nnc3-c3ccc(Cl)cc3)SC2)cc1 [F, 3-(4-Chlorophenyl)-6-(4-ethoxyphenyl)-7H-[1,2,4]triazolo[3,4-b][1,3,4]thiadiazine] | 419 nM | 89 nM | 15 nM | 155 nM | 275 nM | 141 nM | 106 nM | 120 nM | 58 nM | 151 nM | 47 nM | 561 nM | 136 nM | 69 nM | –
COc1ccc(C2=Nn3c(nnc3-c3ccccc3C)SC2)cc1OC [K, 3-(2-Methylphenyl)-6-(3,4-dimethoxyphenyl)-7H-[1,2,4]triazolo[3,4-b][1,3,4]thiadiazine] | – | 316 nM | – | 479 nM | 697 nM | 578 nM | 272 nM | – | 667 nM | 2620 nM | – | 5130 nM | – | 267 nM | –
COc1ccc(C2=Nn3c(nnc3-c3ccccc3Cl)SC2)cc1OC [N, 3-(2-Chlorophenyl)-6-(3,4-dimethoxyphenyl)-7H-[1,2,4]triazolo[3,4-b][1,3,4]thiadiazine] | – | 367 nM | – | 502 nM | 755 nM | 559 nM | 278 nM | – | 510 nM | 2540 nM | – | 2400 nM | – | 278 nM | –
COc1ccccc1-c1nnc2n1N=C(c1ccc(Br)cc1)CS2 [W, 3-(2-Methoxyphenyl)-6-(4-bromophenyl)-7H-[1,2,4]triazolo[3,4-b][1,3,4]thiadiazine] | 489 nM | 164 nM | 141 nM | 322 nM | 552 nM | 243 nM | 175 nM | 314 nM | 161 nM | 135 nM | 178 nM | 313 nM | 299 nM | – | –

Second part, the compound after the results:

GI50 [1] | EC50 [2] | GI50 [3] | EC50 [4] | EC50 [5] | EC50 [6] | EC50 [7] | GI50 [8] | GI50 [9] | GI50 [10] | GI50 [11] | EC50 [12] | GI50 [13] | EC50 [14] | GI50 [15] | Compound
2340 nM | 1220 nM | 1390 nM | 706 nM | 1310 nM | > 10000 nM | 925 nM | 2870 nM | 1010 nM | 1370 nM | 453 nM | 1320 nM | 2890 nM | – | – | CCOc1cccc(-c2nnc3n2N=C(c2ccc(O)c(O)c2)CS3)c1 [Example C1, 3-(3-Ethoxyphenyl)-6-(3,4-dihydroxyphenyl)-7H-[1,2,4]triazolo[3,4-b][1,3,4]thiadiazine]
81 nM | 75 nM | 45 nM | 101 nM | 277 nM | 231 nM | 107 nM | 13 nM | 48 nM | 130 nM | 32 nM | 505 nM | 90 nM | 78 nM | 60 nM | COc1ccc(C2=Nn3c(nnc3-c3ccc(Cl)cc3Cl)SC2)cc1OC [Example G1, 3-(2,4-Dichlorophenyl)-6-(3,4-dimethoxyphenyl)-7H-[1,2,4]triazolo[3,4-b][1,3,4]thiadiazine]
253 nM | 70 nM | 41 nM | 137 nM | 374 nM | 134 nM | 88 nM | 38 nM | 191 nM | 461 nM | 99 nM | 506 nM | 39 nM | 106 nM | – | COc1ccc(C2=Nn3c(nnc3-c3ccccc3OC)SC2)cc1OC [Example K1, 3-(2-Methoxyphenyl)-6-(3,4-dimethoxyphenyl)-7H-[1,2,4]triazolo[3,4-b][1,3,4]thiadiazine]
200 nM | 132 nM | 76 nM | 180 nM | 573 nM | 178 nM | 130 nM | 243 nM | 339 nM | 200 nM | 163 nM | 499 nM | 150 nM | 122 nM | 147 nM | COc1ccc(C2=Nn3c(nnc3-c3cc(OC)c(OC)c(OC)c3)SC2)cc1OC [Example L1, 3-(3,4,5-Trimethoxyphenyl)-6-(3,4-dimethoxyphenyl)-7H-[1,2,4]triazolo[3,4-b][1,3,4]thiadiazine]
